One compound from patent publication US11786494B2, “Methods of modulation of branched chain acids and uses thereof” (Baylor College of Medicine, priority 2009, dated 2023) can be followed below.

Where two headings read alike, the source gives them in different places.

The target in one experiment is BCKDC kinase (BDK) (Rattus norvegicus, UniProt Q00972). In words: Protection of E1 from BDK induced phosphorylation and inactivation. Type of experiment: biochemical. To be noted: for kcat, KIC / kcat, KIV / kcat, KMV / Km: E1 decarboxylase activity, [+] Phenylbutyrate^b. The protocol: To determine the effect of phenylbutyrate on individual BCAA catabolic enzymes, activities of mitochondrial branched chain amino transferase (BCATm) and BCKDC enzymes were measured with and without phenylbutyrate using purified recombinant enzymes. BCATm generates the BCKA products that are elevated in MSUD and are the substrates for BCKDC. BCATm activity was measured at pH 8.0 and 298 K as described in Example 2. Kinetics of the E1 decarboxylase reaction with and without phenylbutyrate were determined in the presence of an artificial electron acceptor 2, 6-dichlorophenolindophenol (DCPIP). The assay mixture contained 100 mM potassium phosphate, pH 7.5, 2.0 mM MgCl2, 0.2 mM thiamin diphosphate (ThDP) and 0.1 mM DCPIP. The rate of decarboxylation at 30° C. was measured by monitoring the reduction of the dye at 600 nm (24, 25). For the overall BCKDC activity assay, the enzymes were exchanged into phosphate buffer (30 mM potassium phosphate, pH 7.5) containing 5 mM DTT using a PD-10 column and the enzyme concentrations were calculated from the absorption maxima at 280 nm. The protein complex was reconstituted with E1, lipoylated E2 (lip-E2) and E3 at a molar ratio of 12:1:55, in which lip-E2 exists as a 24-mer. The assay mixture contained 30 mM potassium phosphate pH 7.5, 100 mM NaCl, 3 mM NAD^+, 0.4 mM CoA, 2 mM MgCl2, 2 mM DTT, 0.1% Triton X-100, and 2 mM ThDP. The overall reaction was monitored by formation of NADH at 340 nm. The apparent rate constants (kapp) at different substrate concentrations for all of the above assays were determined from the absorption changes at the individual wavelength maximum. The kapp rate constants were fit using the following equation: kapp=kcat[S]/(Km+[S])
The phosphorylation of E1 was carried out in the phosphorylation reaction mix (30 mM HEPES, pH 7.4, 2 mM DTT, 1.5 mM MgCl2, and 0.2 mM EGTA) with and without addition of phenylbutyrate. E1, E2, and E3 proteins were mixed at 12:1:55 molar ratio in a 0.1 ml reaction mix, and 0.1 μg of maltose-binding protein-tagged rat BCKDC kinase (BDK) was added. The mix was pre-incubated at room temperature for 15 minutes. The phosphorylation reaction was started after addition of 0.4 mM ATP to the reaction mix, and the reaction was terminated at different time points by addition of higher salt concentration. Overall BCKDC activity was measured as described above.

A further experiment relates to BCKDC. In words: Leucine oxidation in lymphoblast cell lines without CIC. Type of experiment: cell-based, human. The method, then: FIGS. 7A-7C. FIGS. 7A and 7B show leucine oxidation in lymphoblast cells from control subjects (C-660, C-661) and MSUD patients (P-1, -2, -3, -4, -5) untreated or treated with 1 mM phenylbutyrate for 48 h. Leucine oxidation was measured by using radioactive assay as described in Materials and Methods and is expressed in pmol CO2 released/min/mg protein. Values are means±SD (n=3), * p≥0.05, **p≥0.01. […] Images are representative of three independent experiments.
Following treatment with phenylbutyrate, enzyme activity in control and patients' lymphoblast cell lines was measured. Transformed lymphoblast cell lines were available from all 5 MSUD patients and from 2 controls to measure BCKDC activity. Lymphoblasts were incubated for 48 h with and without 1 mM phenylbutyrate (a lower concentration of phenylbutyrate was used because of higher sensitivity of these cells as compared to fibroblasts to the drug) then BCKDC activity was measured without α-chloroisocaproate addition (CIC). […] Thus, in cells from the two patients with E2 mutations (Table 7), activation of enzyme activity results from inhibition of phosphorylation state of E1α, in specific embodiments of the invention.

The term Km denotes the concentration of substrate that gives half-maximal velocity. With `O=C([O-])CCCc1ccccc1.[Na+]` [phenylbutyrate, sodium 4-phenylbutyrate], the “phosphorylation and inactivation of E1 in the presence of BCKDC kinase” value on BCKDC kinase (BDK) is listed as “prevent completely”. In addition, the results for the “kcat, KIC” value at BCKDC kinase (BDK) ([+] BDK) and at BCKDC kinase (BDK) ([−] BDK) were 0.343 ± 0.0417 s⁻¹ and 0.33 ± 0.0283 s⁻¹, respectively. Besides, the “kcat, KIV” value came to 0.433 ± 0.0367 s⁻¹ on BCKDC kinase (BDK) ([+] BDK) and 0.467 ± 0.0317 s⁻¹ at BCKDC kinase (BDK) ([−] BDK). Moreover, the “kcat, KMV” value came out at 0.367 ± 0.03 s⁻¹ on BCKDC kinase (BDK) ([+] BDK) and 0.333 ± 0.0183 s⁻¹ at BCKDC kinase (BDK) ([−] BDK). Moreover, the Km at BCKDC kinase (BDK) ([+] BDK, read-out: Km, KIC) worked out at 21 ± 1.9 µM; on BCKDC kinase (BDK) ([+] BDK, read-out: Km, KIV), 25 ± 2 µM; at BCKDC kinase (BDK) ([+] BDK, read-out: Km, KMV) it was 21 ± 3 µM; on BCKDC kinase (BDK) ([−] BDK, read-out: Km, KIC) it was 27 ± 2 µM; on BCKDC kinase (BDK) ([−] BDK, read-out: Km, KIV) it was 20 ± 3 µM; on BCKDC kinase (BDK) ([−] BDK, read-out: Km, KMV) it was 18 ± 2 µM. For the same compound, the leucine oxidation result in the experiment on BCKDC (MSUD patient lymphoblasts with the exception of patient 5, 1 mM for 48 h) was “significantly enhanced”; in the experiment with BCKDC (control lymphoblasts (C-660, C-661), 1 mM for 48 h) it was “significantly enhanced”. The leucine oxidation increase entry in the experiment on BCKDC (patient 5 lymphoblasts, 1 mM for 48 h) is on record as “not significant”.
